A value given as a limit tells only on which side of the number the result lay.

Sequence of PHD2 (Q9GZT9 whole entry): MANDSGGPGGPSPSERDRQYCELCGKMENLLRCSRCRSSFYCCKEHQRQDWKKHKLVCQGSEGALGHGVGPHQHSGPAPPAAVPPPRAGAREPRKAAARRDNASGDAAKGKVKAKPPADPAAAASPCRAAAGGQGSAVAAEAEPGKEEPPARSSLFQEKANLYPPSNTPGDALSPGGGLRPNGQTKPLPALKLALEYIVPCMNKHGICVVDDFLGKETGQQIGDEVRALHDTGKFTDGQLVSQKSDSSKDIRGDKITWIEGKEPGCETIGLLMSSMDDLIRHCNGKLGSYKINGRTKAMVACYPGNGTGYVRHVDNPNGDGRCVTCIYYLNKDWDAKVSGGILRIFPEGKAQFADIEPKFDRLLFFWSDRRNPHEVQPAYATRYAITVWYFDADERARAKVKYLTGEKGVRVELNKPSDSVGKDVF

This experiment concerns the target PHD2 (Homo sapiens, UniProt Q9GZT9). The experiment is described as follows: Assay for HIF-PHD2 catalytic activity (time-resolved fluorescence, VHL complex detection). Type of experiment: biochemical. The settings on record: FLAG-tagged full length PHD2; 0.2 μM 2-oxoglutarate, 0.5 μM HIF-1α peptide; read-out: PHD2 Activity (PHD2 binding activity expressed as IC50). Here is the method: Assay for HIF-PHD2 Catalytic Activity
After a 30 min preincubation at room temperature, the enzymatic reactions were initiated by the addition of 4 μL of substrates (final concentrations of 0.2 μM 2-oxoglutarate and 0.5 μM HIF-1α peptide biotinyl-DLDLEMLAPYIPMDDDFQL). After 2 hr at room temperature, the reactions were terminated and signals were developed by the addition of a 25 μL quench/detection mix to a final concentration of 1 mM ortho-phenanthroline, 0.1 mM EDTA, 0.5 nM anti-(His)6 LANCE reagent (Perkin-Elmer Life Sciences), 100 nM AF647-labeled streptavidin (Invitrogen), and 2 μg/ml (His)6-VHL complex (S. Tan (2001) Protein Expr. Purif. 21, 224-234). The ratio of time resolved fluorescence signals at 665 and 620 nm was determined, and percent inhibition was calculated relative to an uninhibited control sample run in parallel.
A word on the IC50: it is the concentration that inhibits the measured activity by half. As to `O=C(O)CN1CCC2(CC1)C(=O)N(c1ccc(-c3ccccc3)cc1)c1ncc(Br)cc12` [Example 7, (1′-biphenyl-4-yl-5′-bromo-2′-oxo-1′,2′-dihydro-1H-spiro[piperidine-4,3′-pyrrolo[2,3-b]pyridin]-1-yl)acetic acid], the IC50 fell in the range of 10 to 50 nM.

For `O=C(O)CN1CCC2(CC1)C(=O)N(c1ccc(-c3ccccc3)cc1)c1ncccc12` [Example 9, (1′-biphenyl-4-yl-2′-oxo-1′,2′-dihydro-1H-spiro[piperidine-4,3′-pyrrolo[2,3-b]pyridin]-1-yl)acetic acid], the IC50 lay within 10 to 50 nM.

As for `N#Cc1cnc2c(c1)C1(CCN(CC(=O)O)CC1)C(=O)N2c1ccc(-c2ccccc2)cc1` [Example 8, (1′-biphenyl-4-yl-5′-cyano-2′-oxo-1′,2′-dihydro-1H-spiro[piperidine-4,3′-pyrrolo[2,3-b]pyridin]-1-yl)acetic acid], the IC50 lay in the range of 10 to 50 nM. The value for `Cc1cccnc1CN1CCC2(CC1)C(=O)N(c1ccc(-c3ccccc3)cc1)c1ncc(C(=O)O)cc12` [Example 5, 1′-biphenyl-4-yl-1-[(3-methylpyridin-2-yl)methyl]-2′-oxo-1′,2′-dihydrospiro[piperidine-4,3′-pyrrolo[2,3-b]pyridine]-5′-carboxylic acid] was at most 5 nM; that for `Cc1cccnc1CN1CCC2(CC1)C(=O)N(c1ccc(-c3ccccc3)cc1)c1nc(C#N)ccc12` [Example 3, 1′-biphenyl-4-yl-1-[(3-methylpyridin-2-yl)methyl]-2′-oxo-1′,2′-dihydrospiro[piperidine-4,3′-pyrrolo[2,3-b]pyridine]-6′-carbonitrile] was at most 5 nM. Consider `O=C(O)CN1CCC2(CC1)C(=O)N(c1ccc(-c3ccccc3)cc1)c1ncc(C(=O)O)cc12` [Example 10, 1′-biphenyl-4-yl-1-(carboxymethyl)-2′-oxo-1′,2′-dihydrospiro[piperidine-4,3′-pyrrolo[2,3-b]pyridine]-5′-carboxylic acid], for which the IC50 fell in the range of 5 to 10 nM. The value for `Cc1cccnc1CN1CCC2(CC1)C(=O)N(c1ccc(-c3ccccc3)cc1)c1ncc(C#N)cc12` [Example 4, 1′-biphenyl-4-yl-1-[(3-methylpyridin-2-yl)methyl]-2′-oxo-1′,2′-dihydrospiro[piperidine-4,3′-pyrrolo[2,3-b]pyridine]-5′-carbonitrile] was 5 to 10 nM; that for `Cc1cccnc1CN1CCC2(CC1)C(=O)N(c1ccc(-c3ccccc3)cc1)c1nc(C(=O)O)ccc12` [Example 6, 1′-biphenyl-4-yl-1-[(3-methylpyridin-2-yl)methyl]-2′-oxo-1′,2′-dihydrospiro[piperidine-4,3′-pyrrolo[2,3-b]pyridine]-6′-carboxylic acid] was at most 5 nM.

These data come from US8492398B2, “Spiroazaindoles” (Merck Sharp & Dohme Corp., priority 2008, dated 2013).
